# Results published in publication PMC10669037, “CRISPR/Cas12a Collateral Cleavage Activity for Sensitive 3′–5′ Exonuclease Assay” (Biosensors, 2023).
# System: T1, Exonuclease III (Exo III)
# T1 construct: gene xthA; commercial enzyme from New England BioLabs
# Test: hairpin DNA digestion, coupled to Cas12a collateral cleavage of fluorescent reporter
# Format: biochemical
# Details: acts by metal chelation, not a specific binder; Exo III 5 U/mL, 10 min preincubation, hairpin probe substrate, magnesium acetate buffer pH 7.9, 37 °C; EDTA carried into the Cas12a read-out step
smiles,measurement,value
O=C(O)CN(CCN(CC(=O)O)CC(=O)O)CC(=O)O [EDTA],IC50,6.34 mM
